Measured values published in article PMC7673538 (PLoS Biology, 2020).

test system: CV-B3; assay: microbe, parasite or virus in culture; assay type: cell-based, coxsackievirus B3; details: not given

SMILES	antiviral activity against CV-B3 (in words)
COc1ccc(N(Cc2ccc(F)cc2)S(=O)(=O)c2ccco2)cc1 [Compound 5b, N-(4-fluorobenzyl)-N-(4-methoxyphenyl)furan-2-sulfonamide]	loss of antiviral activity
COc1ccc(N(Cc2ccc(F)cc2)C(=O)C2CCCO2)cc1 (stereo not shown) [Compound 5f, N-(4-Fluorobenzyl)-N-(4-methoxyphenyl)tetrahydrofuran-2-carboxamide]	loss of antiviral activity
COc1ccc(N(Cc2ccc(F)cc2)Cc2ccco2)cc1 [Compound 5g, N-(4-fluorobenzyl)-N-(furan-2-ylmethyl)-4-methoxyaniline]	loss of antiviral activity
CNCC(=O)N(Cc1ccc(F)cc1)c1ccc(OC)cc1 [Compound 6, N-(4-fluorobenzyl)-N-(4-methoxyphenyl)-2-(methylamino)acetamide]	loss of antiviral activity
COc1ccc(N(Cc2ccco2)C(=O)c2ccc(F)cc2)cc1 [Compound 15, 4-Fluoro-N-(furan-2-ylmethyl)-N-(4-methoxyphenyl)benzamide]	abolished antiviral acitivty

same assay, conditions: Enterovirus B, CVB3, HeLa R19

SMILES	EC50
COc1ccc(N(Cc2ccc(F)cc2)S(=O)(=O)c2ccco2)cc1 [Compound 5b, N-(4-fluorobenzyl)-N-(4-methoxyphenyl)furan-2-sulfonamide]	> 30 µM
COc1ccc(N(Cc2ccc(F)cc2)C(=O)C2CCCO2)cc1 (stereo not shown) [Compound 5f, N-(4-Fluorobenzyl)-N-(4-methoxyphenyl)tetrahydrofuran-2-carboxamide]	> 30 µM
COc1ccc(N(Cc2ccc(F)cc2)Cc2ccco2)cc1 [Compound 5g, N-(4-fluorobenzyl)-N-(furan-2-ylmethyl)-4-methoxyaniline]	> 30 µM
CNCC(=O)N(Cc1ccc(F)cc1)c1ccc(OC)cc1 [Compound 6, N-(4-fluorobenzyl)-N-(4-methoxyphenyl)-2-(methylamino)acetamide]	> 30 µM
COc1ccc(N(Cc2ccco2)C(=O)c2ccc(F)cc2)cc1 [Compound 15, 4-Fluoro-N-(furan-2-ylmethyl)-N-(4-methoxyphenyl)benzamide]	> 30 µM

same assay, conditions: Enterovirus B, CVB3, HeLa R19, read-out: CV-B3 EC50 Average

SMILES	EC50
COc1ccc(N(Cc2ccc(F)cc2)S(=O)(=O)c2ccco2)cc1 [Compound 5b, N-(4-fluorobenzyl)-N-(4-methoxyphenyl)furan-2-sulfonamide]	> 30 µM
COc1ccc(N(Cc2ccc(F)cc2)C(=O)C2CCCO2)cc1 (stereo not shown) [Compound 5f, N-(4-Fluorobenzyl)-N-(4-methoxyphenyl)tetrahydrofuran-2-carboxamide]	> 30 µM
COc1ccc(N(Cc2ccc(F)cc2)Cc2ccco2)cc1 [Compound 5g, N-(4-fluorobenzyl)-N-(furan-2-ylmethyl)-4-methoxyaniline]	> 30 µM
CNCC(=O)N(Cc1ccc(F)cc1)c1ccc(OC)cc1 [Compound 6, N-(4-fluorobenzyl)-N-(4-methoxyphenyl)-2-(methylamino)acetamide]	> 30 µM
COc1ccc(N(Cc2ccco2)C(=O)c2ccc(F)cc2)cc1 [Compound 15, 4-Fluoro-N-(furan-2-ylmethyl)-N-(4-methoxyphenyl)benzamide]	> 30 µM

same assay, conditions: Enterovirus B, CVB3, HeLa R19, read-out: CV-B3 Exp 1 EC50

SMILES	EC50
COc1ccc(N(Cc2ccc(F)cc2)S(=O)(=O)c2ccco2)cc1 [Compound 5b, N-(4-fluorobenzyl)-N-(4-methoxyphenyl)furan-2-sulfonamide]	> 30 µM
COc1ccc(N(Cc2ccc(F)cc2)C(=O)C2CCCO2)cc1 (stereo not shown) [Compound 5f, N-(4-Fluorobenzyl)-N-(4-methoxyphenyl)tetrahydrofuran-2-carboxamide]	> 30 µM
COc1ccc(N(Cc2ccc(F)cc2)Cc2ccco2)cc1 [Compound 5g, N-(4-fluorobenzyl)-N-(furan-2-ylmethyl)-4-methoxyaniline]	> 30 µM
CNCC(=O)N(Cc1ccc(F)cc1)c1ccc(OC)cc1 [Compound 6, N-(4-fluorobenzyl)-N-(4-methoxyphenyl)-2-(methylamino)acetamide]	> 30 µM
COc1ccc(N(Cc2ccco2)C(=O)c2ccc(F)cc2)cc1 [Compound 15, 4-Fluoro-N-(furan-2-ylmethyl)-N-(4-methoxyphenyl)benzamide]	> 30 µM

same assay, conditions: Enterovirus B, CVB3, HeLa R19, read-out: CV-B3 Exp2 EC50

SMILES	EC50
COc1ccc(N(Cc2ccc(F)cc2)S(=O)(=O)c2ccco2)cc1 [Compound 5b, N-(4-fluorobenzyl)-N-(4-methoxyphenyl)furan-2-sulfonamide]	> 30 µM
COc1ccc(N(Cc2ccc(F)cc2)C(=O)C2CCCO2)cc1 (stereo not shown) [Compound 5f, N-(4-Fluorobenzyl)-N-(4-methoxyphenyl)tetrahydrofuran-2-carboxamide]	> 30 µM
COc1ccc(N(Cc2ccc(F)cc2)Cc2ccco2)cc1 [Compound 5g, N-(4-fluorobenzyl)-N-(furan-2-ylmethyl)-4-methoxyaniline]	> 30 µM
CNCC(=O)N(Cc1ccc(F)cc1)c1ccc(OC)cc1 [Compound 6, N-(4-fluorobenzyl)-N-(4-methoxyphenyl)-2-(methylamino)acetamide]	> 30 µM
COc1ccc(N(Cc2ccco2)C(=O)c2ccc(F)cc2)cc1 [Compound 15, 4-Fluoro-N-(furan-2-ylmethyl)-N-(4-methoxyphenyl)benzamide]	> 30 µM

target: T1, human DAT (Homo sapiens, UniProt Q01959); assay: not given; assay type: cell-based; details: not given
T1 construct: expressed in transfected cells; host or cells: HEK293 (gift of Dr. Hoener, F. Hoffmann-La Roche)
T1 sequence (Q01959 whole entry): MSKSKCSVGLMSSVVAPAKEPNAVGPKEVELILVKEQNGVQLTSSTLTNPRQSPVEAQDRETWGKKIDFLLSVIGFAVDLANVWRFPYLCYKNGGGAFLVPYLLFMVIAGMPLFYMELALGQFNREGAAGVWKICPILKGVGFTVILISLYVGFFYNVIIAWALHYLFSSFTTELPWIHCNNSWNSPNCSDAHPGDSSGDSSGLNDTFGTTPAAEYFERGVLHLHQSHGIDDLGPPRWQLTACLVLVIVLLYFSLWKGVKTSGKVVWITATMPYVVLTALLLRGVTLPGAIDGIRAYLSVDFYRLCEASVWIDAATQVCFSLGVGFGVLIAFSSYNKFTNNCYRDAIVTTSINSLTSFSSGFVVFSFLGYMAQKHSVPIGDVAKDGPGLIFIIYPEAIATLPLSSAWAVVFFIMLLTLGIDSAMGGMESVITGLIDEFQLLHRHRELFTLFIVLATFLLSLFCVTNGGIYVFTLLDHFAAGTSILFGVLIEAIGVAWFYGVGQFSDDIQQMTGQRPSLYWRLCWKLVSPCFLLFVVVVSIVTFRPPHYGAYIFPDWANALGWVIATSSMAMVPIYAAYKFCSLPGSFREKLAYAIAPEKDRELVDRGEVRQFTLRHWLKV

SMILES	inhibition of DAT function (in words)
CNCCC(Oc1ccc(C(F)(F)F)cc1)c1ccccc1 (stereo not shown) [fluoxetine, reference compound]	promiscuously inhibited also the DAT and NET activity at 100 μM

test system: not listed separately; assay: in vitro; details: human, CC50

SMILES	CC50
COc1ccc(N(Cc2ccc(F)cc2)S(=O)(=O)c2ccco2)cc1 [Compound 5b, N-(4-fluorobenzyl)-N-(4-methoxyphenyl)furan-2-sulfonamide]	> 30 µM
COc1ccc(N(Cc2ccc(F)cc2)C(=O)C2CCCO2)cc1 (stereo not shown) [Compound 5f, N-(4-Fluorobenzyl)-N-(4-methoxyphenyl)tetrahydrofuran-2-carboxamide]	> 30 µM
COc1ccc(N(Cc2ccc(F)cc2)Cc2ccco2)cc1 [Compound 5g, N-(4-fluorobenzyl)-N-(furan-2-ylmethyl)-4-methoxyaniline]	> 30 µM
CNCC(=O)N(Cc1ccc(F)cc1)c1ccc(OC)cc1 [Compound 6, N-(4-fluorobenzyl)-N-(4-methoxyphenyl)-2-(methylamino)acetamide]	> 30 µM
COc1ccc(N(Cc2ccco2)C(=O)c2ccc(F)cc2)cc1 [Compound 15, 4-Fluoro-N-(furan-2-ylmethyl)-N-(4-methoxyphenyl)benzamide]	> 30 µM

same assay, conditions: human, CC50 Average

SMILES	CC50
COc1ccc(N(Cc2ccc(F)cc2)S(=O)(=O)c2ccco2)cc1 [Compound 5b, N-(4-fluorobenzyl)-N-(4-methoxyphenyl)furan-2-sulfonamide]	> 30 µM
COc1ccc(N(Cc2ccc(F)cc2)C(=O)C2CCCO2)cc1 (stereo not shown) [Compound 5f, N-(4-Fluorobenzyl)-N-(4-methoxyphenyl)tetrahydrofuran-2-carboxamide]	> 30 µM
COc1ccc(N(Cc2ccc(F)cc2)Cc2ccco2)cc1 [Compound 5g, N-(4-fluorobenzyl)-N-(furan-2-ylmethyl)-4-methoxyaniline]	> 30 µM
CNCC(=O)N(Cc1ccc(F)cc1)c1ccc(OC)cc1 [Compound 6, N-(4-fluorobenzyl)-N-(4-methoxyphenyl)-2-(methylamino)acetamide]	> 30 µM
COc1ccc(N(Cc2ccco2)C(=O)c2ccc(F)cc2)cc1 [Compound 15, 4-Fluoro-N-(furan-2-ylmethyl)-N-(4-methoxyphenyl)benzamide]	> 30 µM

same assay, conditions: human, Exp 1 CC50

SMILES	CC50
COc1ccc(N(Cc2ccc(F)cc2)S(=O)(=O)c2ccco2)cc1 [Compound 5b, N-(4-fluorobenzyl)-N-(4-methoxyphenyl)furan-2-sulfonamide]	> 30 µM
COc1ccc(N(Cc2ccc(F)cc2)C(=O)C2CCCO2)cc1 (stereo not shown) [Compound 5f, N-(4-Fluorobenzyl)-N-(4-methoxyphenyl)tetrahydrofuran-2-carboxamide]	> 30 µM
COc1ccc(N(Cc2ccc(F)cc2)Cc2ccco2)cc1 [Compound 5g, N-(4-fluorobenzyl)-N-(furan-2-ylmethyl)-4-methoxyaniline]	> 30 µM
CNCC(=O)N(Cc1ccc(F)cc1)c1ccc(OC)cc1 [Compound 6, N-(4-fluorobenzyl)-N-(4-methoxyphenyl)-2-(methylamino)acetamide]	> 30 µM
COc1ccc(N(Cc2ccco2)C(=O)c2ccc(F)cc2)cc1 [Compound 15, 4-Fluoro-N-(furan-2-ylmethyl)-N-(4-methoxyphenyl)benzamide]	> 30 µM

same assay, conditions: human, Exp2 CC50

SMILES	CC50
COc1ccc(N(Cc2ccc(F)cc2)S(=O)(=O)c2ccco2)cc1 [Compound 5b, N-(4-fluorobenzyl)-N-(4-methoxyphenyl)furan-2-sulfonamide]	> 30 µM
COc1ccc(N(Cc2ccc(F)cc2)C(=O)C2CCCO2)cc1 (stereo not shown) [Compound 5f, N-(4-Fluorobenzyl)-N-(4-methoxyphenyl)tetrahydrofuran-2-carboxamide]	> 30 µM
COc1ccc(N(Cc2ccc(F)cc2)Cc2ccco2)cc1 [Compound 5g, N-(4-fluorobenzyl)-N-(furan-2-ylmethyl)-4-methoxyaniline]	> 30 µM
CNCC(=O)N(Cc1ccc(F)cc1)c1ccc(OC)cc1 [Compound 6, N-(4-fluorobenzyl)-N-(4-methoxyphenyl)-2-(methylamino)acetamide]	> 30 µM
COc1ccc(N(Cc2ccco2)C(=O)c2ccc(F)cc2)cc1 [Compound 15, 4-Fluoro-N-(furan-2-ylmethyl)-N-(4-methoxyphenyl)benzamide]	> 30 µM
